Patent US20080096858A1, “Method of Stabilizing Disordered Cefovecin Sodium Salt” (UNIVERSITY OF CONNECTICUT, priority 2004, published 2008)

Tests used:
[1] = Storage stability at 40° C. of cefovecin sodium salt annealed at 75° C., monitored by RP-HPLC (Example 1); settings: for relative rate constant k/k0 / degradation rate constant k: storage at 40° C.; for degradation rate constant k: zero-order model, SD in ( )
Procedure: Cefovecin sodium salt was dissolved in WFI at a concentration of 200 mg cefovecin sodium salt/ml. This solution was filtered using 0.22μ sterilized filters. 4.25 ml of this solution was volumetrically filled in the laminar flow hood into a 20-ml Flint Type I Tubular Treated Vials. 20 mm Lyophile D777-1, B2TR FluoroTec Single Vent Stoppers were partially inserted in the vials. The vials were lyophilized using Vertis freeze dryer (Gardiner, N.Y.) using the following cycle: frozen at −40° C. followed by vacuum drying at the shelf temperature of −18° C. for approximately 42 hours, and 60 millitore vacuum; secondary dried at a temperature of 40° C. for approximately 12 hours and 60 millitore vacuum. The lyophilizer chamber was back flushed with nitrogen and the vials were capped and sealed with aluminum shells.
Amorphous lyophilized cefovecin sodium salt was annealed in sealed vials at 75° C. for 20 and 60 min. The sealed vials with untreated cefovecin sodium salt (control), and vials with annealed cefovecin sodium salt were stored at 40° C. at ambient humidity for 6 and 12 weeks.
(§1) Reverse Phase High Performance Liquid Chromatography (RP-HPLC) was used to monitor degradation of cefovecin sodium salt. HPLC was carried out with a Waters Alliance (Milford, Mass.) system with a UV detector set at 256 nm and a Kromasil C4 column 4.6×250 mm, 5 μm, 100 angstrom pore size (Waters, Milford, Mass.). Column temperature was 30±2° C. and the samples were maintained in the auto sampler at 5±3° C. and the flow rate was 1 mL/min. Gradient method was used with mobile phase A consisting of (9:1) 0.025M sodium phosphate buffer solution, pH 6.5: acetonitrile in HPLC grade water, and mobile phase B consisting of (4:6) 0.025M sodium phosphate buffer solution, pH 6.5: acetonitrile in HPLC grade water.
(§2) The lyophilized cake was dissolved in WFI, and the solution was injected into the HPLC column. Contents of cefovecin sodium salt and a main degradant with relative retention time of approximately 1.6 were calculated as Ac/ΣAi, where Ac is the peak area of either cefovecin sodium salt or the degradant, and ΣAi is a total area of all chromatographic peaks. […] Stability data obtained for two annealed samples and the control sample are graphically illustrated in FIG. 1.
In addition, relative rate constants, k/k0 (where k0 is the rate constant of the control) were calculated in relation to control. The k/k0 are plotted in FIG. 2 as a function of annealing time at 75° C.

[2] = Storage stability at 40° C. for 6 months of cefovecin sodium salt annealed at 60° C., monitored by RP-HPLC (Example 2)
Procedure: as §1, §2
Amorphous lyophilized cefovecin sodium salt was annealed in sealed vials at 60° C. for 300 min in a contract lab, UCONN, Storrs, Conn. Untreated samples (control), and annealed samples were placed on stability at 40° C. for 6 months. Reverse Phase High Performance Liquid Chromatography was used to monitor degradation as described in Example 1.

[3] = HPLC purity of thermally treated freeze-dried cefovecin sodium salt (Example 3, Table 3)
Procedure: as §1, §2
A freeze-dried formulation that contains cefovecin sodium salt was prepared as follows. Cefovecin sodium salt was dissolved in citrate buffer at pH 6.7. […] The solution contained 200 mg/ml of cefovecin sodium salt, 50 mM citrate buffer, 4.5 mg/ml methylparaben, and 0.5 mg/ml propylparaben. The solution was filled in 20 ml glass vials, 4.25 ml/vial. The vials were partially stoppered with single-vent D777-1 and loaded into a freeze-drier (Hull 450 FXS800S, Warminster, Pa.). The solution was frozen at −40° C. followed by primary drying at the shelf temperature of −10° C. and approximately 200 millitore vacuum; after the product temperature approached −12° C., secondary drying was performed at shelf temperature 40° C. for approximately 12 hours and 200 millitore vacuum. Lyophilized cefovecin sodium salt was prepared in a contract facility, SmithKline Beecham Corporation, Conshocken, Pa. […] The lyophilized samples were annealed in sealed vials at 160° C. for 120 min and 170° C./45 min. The untreated samples (control), and annealed samples were tested by HPLC; HPLC conditions are described in Example 1.

[4] = Physical form (crystallization) during thermal treatment; type: physicochemical; settings: thermal treatment according to the invention; material remained amorphous
[5] = annealed at 60° C.; stability study at 25 and 40° C.; cited from earlier work
[6] = after storage 12 weeks at 40° C., ambient humidity, annealed at 75° C.
[7] = 0 min annealing at 75° C. (control)
[8] = after storage 6 months at 40° C., annealed at 60° C.

SMILES: CO/N=C(\C(=O)N[C@@H]1C(=O)N2C(C(=O)[O-])=C([C@@H]3CCCO3)CS[C@H]12)c1csc(N)n1.[Na+] [cefovecin sodium salt]
- dimer level of annealed samples compared with control [1, 6]: lower
- overall purity of annealed samples compared with control [1, 6]: higher
- degradation caused by annealing (initial time points) ([1]; annealing 20 and 60 min at 75° C., lower purity, higher dimer): some degradation
- effect of annealing on stability ([1]; annealing at 75° C.): increased the stability
- relative rate constant k/k0 [1, 7]: 1.00
- degradation rate constant k [1, 7]: −0.12 (0.01) %/week
- relative rate constant k/k0 ([1]; annealed 20 min at 75° C.): 0.82
- degradation rate constant k ([1]; annealed 20 min at 75° C.): −0.095 (0.006) %/week
- relative rate constant k/k0 ([1]; annealed 60 min at 75° C.): 0.71
- degradation rate constant k ([1]; annealed 60 min at 75° C.): −0.082 (0.005) %/week
- dimer level of annealed sample compared with control [2, 8]: lower
- purity of annealed sample compared with control [2, 8]: higher
- purity (cefovecin sodium salt) ([2]; annealed 60° C. 300 min, 0 months at 40° C.): 98.11 area %
- purity (cefovecin sodium salt) ([2]; annealed 60° C. 300 min, 6 months at 40° C.): 96.49 area %
- effect of annealing on stability ([2]; annealing at 60° C.): increased the stability
- purity (cefovecin sodium salt) ([2]; control (not annealed), 0 months at 40° C.): 98.35 area %
- purity (cefovecin sodium salt) ([2]; control (not annealed), 6 months at 40° C.): 96.35 area %
- Purity ([3]; after annealing 60° C./300 min (Example 2)): 98.1 area %
- Purity ([3]; after annealing 75° C./20 min (Example 1)): 97.5 area %
- Purity ([3]; after annealing 75° C./60 min (Example 1)): 97.5 area %
- Purity ([3]; after annealing 160° C./120 minutes, freeze-dried formulation with citrate buffer, methylparaben, propylparaben (Example 3)): 69.8 area %
- Purity ([3]; after annealing 170° C./45 minutes, freeze-dried formulation with citrate buffer, methylparaben, propylparaben (Example 3)): 70.3 area %
- degradation caused by annealing ([3]; annealing at 160° C. and 170° C.): unacceptable levels of degradation
- degradation caused by thermal treatment compared with examples 1 and 2 ([3]; treatment at both 160° C. and 170° C.): significant degradation
- crystallization during thermal treatment [4]: did not occur

SMILES: CO[C@@]1(NC(=O)C(C(=O)[O-])c2ccc(O)cc2)C(=O)N2C(C(=O)[O-])=C(CSc3nnnn3C)COC21.[Na+].[Na+] (some centres unmarked) [moxalactam, moxalactam (di-sodium salt)]
- rate of decarboxylation of annealed sample compared with control [5]: lower
